In patent US20150272939A1, “Identification of Small Molecule Inhibitors of Jumonji AT-Rich Interactive Domain 1A (JARID1A) and 1B (JARID1B) Histone Demethylase” (Yale University, priority 2012, published 2015):
Structures can show the parent of a compound that is named as a salt. Where two headings read alike, the source gives them in different places.

Legend:
[1] = AlphaScreen counterscreen against bio-H3K4me2 peptide in the absence of enzyme (artifact signal); settings: for Artifact Signal (percent): effect of the compound when incubated with bio-H3K4me2 peptide (counterscreen, no enzyme); for Artifact signal: effect of the compound when it is incubated with bio-H3K4me2 peptide: counterscreen, no enzyme;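 as to all read-outs here: counterscreen run without enzyme against bio-H3K4me2 peptide to remove false positive hits from the JARID1 demethylase AlphaScreen screen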
[2] = biological target: T1, JARID1B (Homo sapiens, UniProt Q9UGL1); assay: FLAG-JARID1B histone demethylase assay with AlphaScreen detection (HTS and dose response); format: biochemical; settings: for Assay − Artifact Signal (percent): assay signal minus artifact signal; for inhibition at 20 µM / Inhibitory effect (percent): high-throughput screen, compound 20 μM; for inhibition at 20 µM: read-out: Inhibitory effect (percent); for Assay Signal (percent) / Validation result of HTS active: effect of the compound in the JARID1B AlphaScreen demethylase assay: validation of HTS actives; for Assay Signal (percent): effect of compound in JARID1B AlphaScreen assay; for Validation result of HTS active: effect of the compound in the JARID1B AlphaScreen demethylase assay: total signal before subtraction of artifact signal;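 as to Assay Signal (percent): compound tested at 20 µM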;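 as to Assay − Artifact Signal (percent): compound tested at 20 µM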;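 as to all read-outs here: FLAG-tagged JARID1B at 4 nM acting on a biotinylated H3K4me3 peptide, demethylation read by AlphaScreen luminescence, with hits checked against bio-H3K4me2 without enzyme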
T1 construct: The FLAG tagged full length JARID1B enzyme was expressed in Sf21 insect cells using FLAG-JARID1B baculoviruses; FLAG (N); made in house; host or cells: Sf21 insect cells (baculovirus)

[3] = standard demethylase conditions (10 μM α-KG, 50 μM Fe (II))
[4] = IDs marked *: additional hits under reaction condition with 1 mM α-KG

T1 sequence (Q9UGL1 whole entry): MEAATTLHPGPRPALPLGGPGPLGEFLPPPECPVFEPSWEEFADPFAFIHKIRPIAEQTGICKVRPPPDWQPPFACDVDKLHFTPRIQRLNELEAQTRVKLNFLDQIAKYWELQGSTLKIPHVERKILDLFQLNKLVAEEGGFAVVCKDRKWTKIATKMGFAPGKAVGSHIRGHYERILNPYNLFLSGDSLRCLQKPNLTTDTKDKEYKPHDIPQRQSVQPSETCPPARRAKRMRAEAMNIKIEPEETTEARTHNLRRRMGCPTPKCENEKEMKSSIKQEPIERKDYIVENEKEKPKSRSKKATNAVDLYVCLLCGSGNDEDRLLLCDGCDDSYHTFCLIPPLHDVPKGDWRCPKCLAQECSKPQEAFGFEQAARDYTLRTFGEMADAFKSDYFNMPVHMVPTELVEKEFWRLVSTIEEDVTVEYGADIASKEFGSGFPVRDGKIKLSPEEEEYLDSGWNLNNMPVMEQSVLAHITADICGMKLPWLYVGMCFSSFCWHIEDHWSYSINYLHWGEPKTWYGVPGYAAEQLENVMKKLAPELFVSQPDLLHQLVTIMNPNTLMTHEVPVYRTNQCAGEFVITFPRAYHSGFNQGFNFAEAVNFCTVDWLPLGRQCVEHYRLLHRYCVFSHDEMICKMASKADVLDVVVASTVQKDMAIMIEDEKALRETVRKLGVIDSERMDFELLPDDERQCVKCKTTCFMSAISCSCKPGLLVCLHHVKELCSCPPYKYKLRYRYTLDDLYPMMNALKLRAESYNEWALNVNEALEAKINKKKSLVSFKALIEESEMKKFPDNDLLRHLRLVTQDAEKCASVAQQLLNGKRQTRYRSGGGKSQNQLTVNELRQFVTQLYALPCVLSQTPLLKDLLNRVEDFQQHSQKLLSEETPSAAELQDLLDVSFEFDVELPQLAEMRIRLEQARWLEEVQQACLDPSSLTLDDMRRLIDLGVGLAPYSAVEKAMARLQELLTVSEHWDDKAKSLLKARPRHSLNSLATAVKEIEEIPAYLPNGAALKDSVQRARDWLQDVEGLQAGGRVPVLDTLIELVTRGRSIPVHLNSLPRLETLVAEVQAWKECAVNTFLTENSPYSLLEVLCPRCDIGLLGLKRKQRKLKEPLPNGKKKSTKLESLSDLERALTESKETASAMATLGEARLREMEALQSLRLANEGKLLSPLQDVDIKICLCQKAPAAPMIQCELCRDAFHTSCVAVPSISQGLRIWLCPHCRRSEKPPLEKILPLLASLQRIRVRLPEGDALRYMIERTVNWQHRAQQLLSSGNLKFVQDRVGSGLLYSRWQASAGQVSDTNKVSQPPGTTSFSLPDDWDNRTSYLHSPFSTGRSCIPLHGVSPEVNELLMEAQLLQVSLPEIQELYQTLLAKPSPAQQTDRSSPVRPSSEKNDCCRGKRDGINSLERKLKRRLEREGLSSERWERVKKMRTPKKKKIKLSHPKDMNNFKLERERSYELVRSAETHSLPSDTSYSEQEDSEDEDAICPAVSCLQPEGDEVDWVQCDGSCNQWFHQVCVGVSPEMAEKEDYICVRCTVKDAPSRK

Compound | Artifact Signal (percent) [1] [%] | Assay − Artifact Signal (percent) [2] [%] | inhibition at 20 µM [2, 3] [%] | Assay Signal (percent) [2] [%] | Artifact signal: effect of the compound when it is incubated with bio-H3K4me2 peptide [1] | inhibition at 20 µM [2, 4] [%] | Validation result of HTS active: effect of the compound in the JARID1B AlphaScreen demethylase assay [2] | Inhibitory effect (percent) [2, 3] [%]
N#CC(=Cc1ccc(O)c(O)c1)C(N)=O (single isomer, unassigned) [YU154833, TYRPHOSTIN 46, reference compound] | 4.32 | 46.11 | 76.8 | 50.42 |  |  |  | 
O=C(NNC(=S)NCC1CCCO1)c1ccccn1 (stereo not shown) [YU148374] | 22.77 | 54.50 | 84.8 | 77.28 |  |  |  | 
Oc1cccc(C(=S)N2CCN(Cc3ccccc3)CC2)c1 [YU151559] | 9.22 | 18.39 | 36.9 | 27.61 |  |  |  | 
Oc1cc(O)cc(/C=C/c2ccc(O)c(O)c2)c1 [YU154843, PICEATANNOL, reference compound] | −4.85 | 18.12 | 34 | 13.28 |  |  |  | 
CN[C@@H]1[C@H](O[C@H]2O[C@H](CO)[C@@H](N)[C@H](O)[C@H]2O)O[C@H]2C[C@@H](N)[C@H](O[C@@H]3[C@H](O)[C@@H](O)[C@H](N)C[C@@H]3N)O[C@@H]2[C@@H]1O (stereo in doubt) [YU155086, APRAMYCIN, reference compound] |  |  |  |  | −4.67 | 43.2 | −19.45 | 
COc1cc(C=O)cc(Cl)c1OCc1cccc([N+](=O)[O-])c1 [YU152587] |  |  | 98.2 |  | −2.67 |  | −1.32 | 
NNC(=O)c1ccncc1.Nc1ccc(C(=O)O)c(O)c1 [YU034557, PASINIAZID, reference compound] | 1.76 | 42.63 |  | 44.38 |  |  |  | 46.37
CCC(=O)Nc1ccc(N2CCCC2)c(C(=O)O)c1 [YU208199] | 32.96 | 17.19 | 63.4 | 50.16 |  |  |  | 
C[n+]1cc2c3c(ccc2c2ccc4cc5c(cc4c21)OCO5)OCO3 [YU033662, SANGUINARINE SULFATE, reference compound] | 9.21 | 58.64 |  | 67.85 |  |  |  | 86.66
Cc1cc(OCc2nc3ccccc3s2)ccc1N [YU147615] | 0.54 | 13.88 | 40.4 | 14.43 |  |  |  | 
C=C[C@@H](C1=CC(=O)C(OC)=C(OC)C1=O)c1ccccc1 [YU155075, 3,4-DIMETHOXY- DALBERGIONE, reference compound] | 11.14 | 38.83 | 75.9 | 49.97 |  |  |  | 
O=c1c(O)cc([C@H]2Oc3cc(O)cc(O)c3C[C@H]2O)cc2c([C@H]3Oc4cc(O)cc(O)c4C[C@H]3O)cc(O)c(O)c12 [YU155003, THEAFLAVIN, reference compound] | 47.32 | 13.49 | 60.4 | 60.81 |  |  |  | 
N#CC(=CC=Cc1ccco1)C(N)=S (single isomer, unassigned) [YU144893] | 40.11 | 22.61 | 44.6 | 62.72 |  |  |  | 
CCCc1ccc(OC(=O)c2cc3ccccc3oc2=O)cc1 [YU151027] |  |  | 37 |  | −4.49 |  | 2.93 | 
CCOc1cccc(CNc2ccc(N3CCCC3)cc2)c1 [YU149839] | 18.44 | 13.21 | 47.5 | 31.65 |  |  |  | 
O=C(Nc1ccc(N2CCC(c3ccccc3)C2)c(C(=O)O)c1)c1cccc(Cl)c1 (stereo not shown) [YU208239] | 26.96 | 9.53 | 50.2 | 36.49 |  |  |  | 
N#Cc1c(O)nc(S)nc1-c1ccccc1 [YU145521] | −2.92 | 9.91 | 68.2 | 6.99 |  |  |  | 

Compound | Artifact Signal (percent) [1] [%] | Assay − Artifact Signal (percent) [2] [%] | inhibition at 20 µM [2, 3] [%] | Assay Signal (percent) [2] [%] | Artifact signal: effect of the compound when it is incubated with bio-H3K4me2 peptide [1] | inhibition at 20 µM [2, 4] [%] | Validation result of HTS active: effect of the compound in the JARID1B AlphaScreen demethylase assay [2] | Inhibitory effect (percent) [2, 3] [%]
N#CC(=Cc1ccncc1)c1nc2cc(C(F)(F)F)ccc2s1 (single isomer, unassigned) [YU153803] | −5.27 | 99.03 | 90.8 | 93.75 |  |  |  | 
C[C@@H]1O[C@@H](OC[C@H]2OC(OC3=C(c4ccc(O)c(O)c4)Oc4cc(O)cc(O)c4C3O)[C@H](O)[C@@H](O)[C@@H]2O)[C@H](O)[C@H](O)[C@H]1O (stereo partly shown) [YU033654, RUTOSIDE (rutin), reference compound] | 5.37 | 52.71 | 65.8 | 58.08 |  |  |  | 
COCc1cc(O)c(O)c(O)c1-c1c(COC)cc(O)c(O)c1O [YU154887, 2,2,3,3,4,4- HEXAHYDROXY-1,1- BIPHENYL-6,6- DIMETHANOL DIMETHYL ETHER, reference compound] | 42.41 | 57.15 | 103 | 99.57 |  |  |  | 
O=S(=O)(NN1CCOCC1)c1ccc(Cl)cc1 [YU148050] | 3.44 | 17.03 | 36.1 | 20.47 |  |  |  | 
Cc1ccc(NC(=O)C2OCCc3ccccc32)cc1Cl (stereo not shown) [YU150403] |  |  | 97.5 |  | −6.36 |  | −3.10 | 
COc1cccc2c1C(=O)c1c(O)c3c(c(O)c1C2=O)C[C@@](O)(C(=O)CO)C[C@@H]3O[C@H]1C[C@H](N)[C@@H](O)[C@H](C)O1.Cl (stereo in doubt) [YU039604, EPIRUBICIN HYDROCHLORIDE, reference compound] |  |  | 81.9 |  | 3.76 |  | 10.74 | 
COC(=O)Nc1nnc(CC2CCCC2)s1 [YU146034] | <2.79 | 21.12 | 33 | 18.33 |  |  |  | 
O=c1c2cc(O)c(O)cc2oc2cc(O)c([C@@H]3O[C@H](CO)[C@@H](O)[C@H](O)[C@H]3O)c(O)c12 [YU153356, MANGIFERIN, reference compound] | 76.59 | 21.62 |  | 98.21 |  |  |  | 
COc1ccccc1NC(=O)COc1ccc(CO)cc1Cl [YU152649] |  |  | 99 |  | 0.22 |  | 6.08 | 
COC(=O)c1cccc(OCC(O)Cn2ccnc2)c1 (stereo not shown) [YU148087] | 7.00 | 8.48 | 51.4 | 15.48 |  |  |  | 
CC(C)n1c(-c2ccccc2F)n[nH]c1=S [YU145747] | 4.74 | 31.49 | 31.3 | 36.22 |  |  |  | 
COc1ccc(C)cc1NC(c1cccnc1)c1ccc2cccnc2c1O (stereo not shown) [YU172175] | 36.93 | 11.16 | 48.5 | 48.09 |  |  |  | 
CN(C)[C@@H]1C(O)=C(C(N)=O)C(=O)[C@@]2(O)C(O)=C3C(=O)c4c(O)ccc(Cl)c4[C@@](C)(O)[C@H]3C[C@@H]12 [YU033743, AUREOMYCIN, reference compound] | 0.43 | 27.81 |  | 28.24 |  | 90 |  | 
O=C(O)CCCC[C@@H]1SC[C@@H]2NC(=O)N[C@@H]21 [YU034331, BIOTIN, reference compound] |  |  | 104 |  | 99.61 |  | 104.67 | 
COc1ccc2c(CCN)c[nH]c2c1.Cl [YU145407] | −1.79 | 8.55 | 43 | 6.76 |  |  |  | 
C[C@@](Cc1ccc(O)c(O)c1)(NN)C(=O)O [YU034292, CARBIDOPA, reference compound] | 53.76 | 26.51 | 100 | 80.27 |  |  |  | 
CCOC(=O)c1ccc(NC(c2cccnc2)c2ccc3cccnc3c2O)cc1 (stereo not shown) [YU172168] |  |  | 37.1 |  | 37.50 |  | 44.99 | 
